{
  "source": "patent US10940188B2",
  "about": "“Compounds and methods for treatment and prevention of Flavivirus infection” (priority 2016, dated 2021)",
  "system": "human forebrain-specific organoids infected by FSS13025",
  "assay": "Immunostaining of ZIKV-infected forebrain-specific organoids for cleaved caspase-3 and ZIKVE",
  "type": "cell-based",
  "conditions": "FSS13025 infection, 10 days",
  "source_text": "FIGS. 1A-1, 1A-2, 1A-3, 1B-1, 1B-2, 1C-1, and 1C-2. Emricasan suppresses cell death of ZIKV-infected human astrocytes and hNPCs in 2D monolayer cultures and 3D brain organoids. Emricasan (FIG. 1A-1) inhibits caspase-3 activity and improves cell viability in human astrocytes infected with three different strains of ZIKV in a concentration dependent manner. Value represent mean±s.d. (n=3). The curves (FIGS. 1A-2 and 1A-3) represent best fit. (FIG. 1B) Sample images of immunostaining (FIG. 1B-1) of forebrain-specific hNPCs for ZIKV envelop protein (ZIKVE; green) and cleaved-caspase 3 (Cas3; red) and DAPI (gray) 72 hours after ZIKV FSS-13025 infection (MOI=0.04-0.08; Scale bar: 20 μm), and quantification (FIG. 1B-2). Values represent mean±s.e.m. (n=3; **P<0.01; Student's t-test). Sample images (FIG. 1C-1) of immunostaining of day 28 human forebrain-specific organoids for ZIKVE (green) and Cas3 (red) and DAPI (gray) 10 days after ZIKV FSS-13025 infection (Scale bar: 100 μm), and quantification (FIG. 1C-2). Values represent mean±s.e.m. (n=6; ***P<0.001; Student's t-test).\nForebrain-specific organoids were generated from the C2-1 human iPSC line as previously described. Briefly, human iPSC colonies were detached 7 days after passage with Collagenase Type IV, washed with fresh stem cell medium and cultured in a 15 ml conical tube. […]",
  "data": [
    {"molecule": "C[C@H](NC(=O)C(=O)Nc1ccccc1C(C)(C)C)C(=O)N[C@@H](CC(=O)O)C(=O)COc1c(F)c(F)cc(F)c1F", "note": "[Emricasan]", "values": [
      {"measurement": "number of cleaved caspase-3-expressing hNPCs, 3D organoid cultures", "value": "reduced the number of active (cleaved) caspase-3-expressing forebrain-specific hNPCs"}
    ]}
  ]
}
